In the NIST ThermoML archive (doi:10.1021/je400835u):
Numbers after ± are expanded uncertainties.

Assay: xn = mol fraction of the nth substance listed
Conditions: 100 kPa, Liquid; for viscosity: Falling or rolling sphere viscometry; for mass density: Vibrating tube method

CCCCC1CCCCC1 [butylcyclohexane] + CCCCCCCCCCCC
Conditions	mass density, 293.15 K [kg/m3]	mass density, 298.15 K [kg/m3]	mass density, 303.15 K [kg/m3]	mass density, 308.15 K [kg/m3]	mass density, 313.15 K [kg/m3]	viscosity, 293.15 K [mPa·s]	viscosity, 298.15 K [mPa·s]	viscosity, 303.15 K [mPa·s]	viscosity, 308.15 K [mPa·s]	viscosity, 313.15 K [mPa·s]
x1 = 0.0511	750.97 ± 0.16	747.36 ± 0.16	743.73 ± 0.16	740.1 ± 0.16	736.45 ± 0.16	1.492 ± 0.015	1.369 ± 0.014	1.258 ± 0.013	1.157 ± 0.013	1.07 ± 0.013
x1 = 0.0989	752.88 ± 0.16	749.26 ± 0.16	745.63 ± 0.16	741.99 ± 0.16	738.34 ± 0.16	1.486 ± 0.015	1.363 ± 0.014	1.251 ± 0.013	1.152 ± 0.013	1.067 ± 0.013
x1 = 0.2004	757.06 ± 0.15	753.44 ± 0.16	749.8 ± 0.16	746.15 ± 0.16	742.5 ± 0.16	1.467 ± 0.015	1.346 ± 0.014	1.238 ± 0.013	1.14 ± 0.013	1.056 ± 0.013
x1 = 0.3002	761.38 ± 0.15	757.75 ± 0.16	754.1 ± 0.16	750.45 ± 0.16	746.78 ± 0.16	1.45 ± 0.014	1.331 ± 0.014	1.224 ± 0.013	1.128 ± 0.013	1.047 ± 0.013
x1 = 0.4012	765.97 ± 0.15	762.34 ± 0.15	758.68 ± 0.16	755.02 ± 0.16	751.35 ± 0.16	1.431 ± 0.014	1.314 ± 0.014	1.21 ± 0.013	1.117 ± 0.013	1.036 ± 0.012
x1 = 0.5005	770.74 ± 0.15	767.1 ± 0.15	763.43 ± 0.15	759.76 ± 0.16	756.07 ± 0.16	1.415 ± 0.014	1.298 ± 0.014	1.196 ± 0.013	1.106 ± 0.013	1.026 ± 0.012
x1 = 0.6006	775.82 ± 0.15	772.16 ± 0.15	768.48 ± 0.15	764.8 ± 0.16	761.1 ± 0.16	1.393 ± 0.014	1.279 ± 0.014	1.18 ± 0.013	1.091 ± 0.013	1.013 ± 0.012
x1 = 0.7008	781.21 ± 0.15	777.53 ± 0.15	773.83 ± 0.15	770.13 ± 0.15	766.43 ± 0.16	1.373 ± 0.014	1.262 ± 0.014	1.165 ± 0.013	1.078 ± 0.013	1.002 ± 0.012
x1 = 0.7998	786.85 ± 0.15	783.16 ± 0.15	779.45 ± 0.15	775.73 ± 0.15	771.99 ± 0.16	1.351 ± 0.014	1.244 ± 0.013	1.15 ± 0.013	1.064 ± 0.013	0.99 ± 0.012
x1 = 0.8996	792.92 ± 0.15	789.21 ± 0.15	785.47 ± 0.15	781.73 ± 0.15	777.98 ± 0.15	1.331 ± 0.014	1.226 ± 0.013	1.134 ± 0.013	1.049 ± 0.013	0.978 ± 0.012
x1 = 0.9494	796.1 ± 0.15	792.38 ± 0.15	788.64 ± 0.15	784.9 ± 0.15	781.13 ± 0.15	1.32 ± 0.014	1.216 ± 0.013	1.126 ± 0.013	1.04 ± 0.013	0.969 ± 0.012
x1 = 1	799.44 ± 0.15	795.7 ± 0.15	791.95 ± 0.15	788.19 ± 0.15	784.41 ± 0.15	1.296 ± 0.014	1.196 ± 0.013	1.107 ± 0.013	1.027 ± 0.013	0.958 ± 0.012

CCCCC1CCCCC1 [butylcyclohexane] + CCCCCCCC
Conditions	mass density, 293.15 K [kg/m3]	mass density, 298.15 K [kg/m3]	mass density, 303.15 K [kg/m3]	mass density, 308.15 K [kg/m3]	mass density, 313.15 K [kg/m3]	viscosity, 293.15 K [mPa·s]	viscosity, 298.15 K [mPa·s]	viscosity, 303.15 K [mPa·s]	viscosity, 308.15 K [mPa·s]	viscosity, 313.15 K [mPa·s]
x1 = 0.0495	708.15 ± 0.17	704.15 ± 0.17	700.12 ± 0.17	696.06 ± 0.17	691.99 ± 0.17	0.569 ± 0.011	0.547 ± 0.011	0.515 ± 0.011	0.49 ± 0.011	0.464 ± 0.011
x1 = 0.1008	713.59 ± 0.17	709.59 ± 0.17	705.57 ± 0.17	701.55 ± 0.17	697.5 ± 0.17	0.596 ± 0.011	0.573 ± 0.011	0.54 ± 0.011	0.512 ± 0.011	0.486 ± 0.011
x1 = 0.198	723.69 ± 0.17	719.73 ± 0.17	715.74 ± 0.17	711.75 ± 0.17	707.72 ± 0.17	0.647 ± 0.011	0.619 ± 0.011	0.582 ± 0.011	0.552 ± 0.011	0.524 ± 0.011
x1 = 0.3011	734.16 ± 0.16	730.24 ± 0.16	726.28 ± 0.16	722.33 ± 0.17	718.33 ± 0.17	0.707 ± 0.011	0.671 ± 0.011	0.63 ± 0.011	0.592 ± 0.011	0.565 ± 0.011
x1 = 0.4008	744.07 ± 0.16	740.18 ± 0.16	736.26 ± 0.16	732.33 ± 0.16	728.38 ± 0.16	0.771 ± 0.011	0.726 ± 0.011	0.68 ± 0.011	0.638 ± 0.011	0.606 ± 0.011
x1 = 0.4982	753.55 ± 0.16	749.7 ± 0.16	745.81 ± 0.16	741.91 ± 0.16	737.98 ± 0.16	0.839 ± 0.012	0.784 ± 0.012	0.735 ± 0.011	0.687 ± 0.011	0.652 ± 0.011
x1 = 0.5985	763.12 ± 0.16	759.29 ± 0.16	755.43 ± 0.16	751.56 ± 0.16	747.67 ± 0.16	0.918 ± 0.012	0.854 ± 0.012	0.799 ± 0.012	0.747 ± 0.011	0.705 ± 0.011
x1 = 0.6997	772.58 ± 0.15	768.77 ± 0.16	764.94 ± 0.16	761.1 ± 0.16	757.24 ± 0.16	1.004 ± 0.012	0.931 ± 0.012	0.87 ± 0.012	0.814 ± 0.012	0.765 ± 0.011
x1 = 0.7997	781.72 ± 0.15	777.93 ± 0.15	774.13 ± 0.16	770.31 ± 0.16	766.48 ± 0.16	1.097 ± 0.013	1.014 ± 0.012	0.945 ± 0.012	0.886 ± 0.012	0.83 ± 0.012
x1 = 0.9001	790.72 ± 0.15	786.95 ± 0.15	783.18 ± 0.15	779.39 ± 0.15	775.59 ± 0.16	1.2 ± 0.013	1.108 ± 0.013	1.029 ± 0.013	0.962 ± 0.012	0.898 ± 0.012
x1 = 0.951	795.17 ± 0.15	791.42 ± 0.15	787.66 ± 0.15	783.88 ± 0.15	780.1 ± 0.15	1.25 ± 0.014	1.156 ± 0.013	1.07 ± 0.013	0.996 ± 0.012	0.93 ± 0.012
x1 = 1	799.44 ± 0.15	795.7 ± 0.15	791.95 ± 0.15	788.19 ± 0.15	784.41 ± 0.15	1.296 ± 0.014	1.196 ± 0.013	1.107 ± 0.013	1.027 ± 0.013	0.958 ± 0.012

CCCCC1CCCCC1 [butylcyclohexane] + CCCCCCCCC
Conditions	mass density, 293.15 K [kg/m3]	mass density, 298.15 K [kg/m3]	mass density, 303.15 K [kg/m3]	mass density, 308.15 K [kg/m3]	mass density, 313.15 K [kg/m3]	viscosity, 293.15 K [mPa·s]	viscosity, 298.15 K [mPa·s]	viscosity, 303.15 K [mPa·s]	viscosity, 308.15 K [mPa·s]	viscosity, 313.15 K [mPa·s]
x1 = 0.0496	721.95 ± 0.16	718.07 ± 0.17	714.19 ± 0.17	710.29 ± 0.17	706.36 ± 0.17	0.745 ± 0.011	0.698 ± 0.011	0.659 ± 0.011	0.621 ± 0.011	0.588 ± 0.011
x1 = 0.1008	726.12 ± 0.16	722.26 ± 0.16	718.38 ± 0.17	714.48 ± 0.17	710.57 ± 0.17	0.764 ± 0.011	0.718 ± 0.011	0.677 ± 0.011	0.638 ± 0.011	0.603 ± 0.011
x1 = 0.2011	734.29 ± 0.16	730.45 ± 0.16	726.59 ± 0.16	722.71 ± 0.16	718.81 ± 0.17	0.807 ± 0.012	0.754 ± 0.011	0.712 ± 0.011	0.668 ± 0.011	0.63 ± 0.011
x1 = 0.3005	742.39 ± 0.16	738.56 ± 0.16	734.71 ± 0.16	730.85 ± 0.16	726.97 ± 0.16	0.852 ± 0.012	0.794 ± 0.012	0.745 ± 0.011	0.698 ± 0.011	0.659 ± 0.011
x1 = 0.3997	750.46 ± 0.16	746.65 ± 0.16	742.81 ± 0.16	738.96 ± 0.16	735.1 ± 0.16	0.901 ± 0.012	0.836 ± 0.012	0.783 ± 0.012	0.733 ± 0.011	0.692 ± 0.011
x1 = 0.4999	758.62 ± 0.16	754.82 ± 0.16	751 ± 0.16	747.17 ± 0.16	743.32 ± 0.16	0.956 ± 0.012	0.885 ± 0.012	0.827 ± 0.012	0.774 ± 0.011	0.729 ± 0.011
x1 = 0.5987	766.67 ± 0.16	762.89 ± 0.16	759.08 ± 0.16	755.26 ± 0.16	751.43 ± 0.16	1.015 ± 0.012	0.94 ± 0.012	0.876 ± 0.012	0.82 ± 0.012	0.77 ± 0.011
x1 = 0.7011	775.04 ± 0.15	771.26 ± 0.15	767.46 ± 0.16	763.66 ± 0.16	759.85 ± 0.16	1.081 ± 0.013	1.002 ± 0.012	0.934 ± 0.012	0.873 ± 0.012	0.817 ± 0.012
x1 = 0.8001	783.13 ± 0.15	779.35 ± 0.15	775.57 ± 0.15	771.78 ± 0.16	767.98 ± 0.16	1.152 ± 0.013	1.068 ± 0.013	0.996 ± 0.012	0.927 ± 0.012	0.866 ± 0.012
x1 = 0.8996	791.25 ± 0.15	787.5 ± 0.15	783.73 ± 0.15	779.96 ± 0.15	776.17 ± 0.16	1.223 ± 0.013	1.135 ± 0.013	1.052 ± 0.013	0.98 ± 0.012	0.915 ± 0.012
x1 = 0.9504	795.39 ± 0.15	791.64 ± 0.15	787.88 ± 0.15	784.11 ± 0.15	780.33 ± 0.15	1.262 ± 0.014	1.166 ± 0.013	1.08 ± 0.013	1.005 ± 0.012	0.938 ± 0.012
x1 = 1	799.44 ± 0.15	795.7 ± 0.15	791.95 ± 0.15	788.19 ± 0.15	784.41 ± 0.15	1.296 ± 0.014	1.196 ± 0.013	1.107 ± 0.013	1.027 ± 0.013	0.958 ± 0.012
